Assay results reported in US6737410B1, “Inhibitors of protein farnesyl transferase” (Warner-Lambert Company, priority 1997, dated 2004).
Like-named read-outs stand apart in the source and are kept apart here.

Legend:
[1] = target: T1, SF9 affinity purified rat farnesyl protein transferase (Rattus norvegicus, UniProt Q02293+Q04631); assay: PFT (farnesyl protein transferase) inhibitory activity assay; format: biochemical
T1 construct: made in house; host or cells: Sf9 insect cells
Protocol: The protein:farnesyl transferase (PFT) or farnesyl protein transferase (FPT) inhibitory activity of compounds of the present invention were assayed in HEPES buffer (pH 7.4) containing 5 mM potassium phosphate and 20 μM ZnCl2. The solution also contained 5 mM DTT (dithiothreitol), 5 mM MgCl2, and 0.1% PEG 8000. Assays were performed in 96-well plates (Wallec) and employed solutions composed of varying concentrations of a compound of the present invention in 100% DMSO (dimethylsulfoxide). Upon addition of both substrates, radiolabeled farnesyl pyrophosphate ([1^3H], specific activity 15 to 30 Ci/mmol, final concentration 134 nM) and (biotinyl)-Ahe-Thr-Lys-Cys-Val-Ile-Met ([3aS[3a alpha, 4 beta, 6a alpha]-hexahydro-2-oxo-1H-thieno[3,4-d]imidazole-5-pentanoic acid]-[7-aminoheptanoic acid]-Thr-Lys-Cys-Val-Ile-Met) (Ahe is 7-amino-heptanoic acid, Thr is threonine, Lys is lysine, Cys is cysteine, Val is valine, Ile is isoleucine and Met is methionine) (final concentration 0.2 μM), the enzyme reaction was started by addition of SF9 affinity purified rat farnesyl protein transferase. After incubation at 30° C. for 30 minutes, the reaction was terminated by diluting the reaction 2.5-fold with a stop buffer containing 1.5 M magnesium acetate, 0.2 M H3PO4, 0.5% BSA (bovine serum albumin), and strepavidin beads (Amersham) at a concentration of 1.3 mg/mL. After allowing the plate to settle for 30 minutes at room temperature, radioactivity was quantitated on a microBeta counter (Model 1450, Wallec). The assay was also carried out without 5 mM potassium phosphate.

[2] = tested on: ras protein farnesylation in ras-transformed cells (H-ras-transformed HIH 3T3 cells); assay: Gel shift assay (inhibition of ras farnesylation in cells); format: cell-based; conditions: for Gel Shift (μM) M.E.D* (minimal effective dose to observe inhibition of ras farnesylation): ras-transformed cells, 18-hour incubation
Protocol: Twenty-four hours after planting 2×10^6 ras-transformed cells per treatment condition, the farnesylation inhibitor is added at varying concentrations. Following an 18-hour incubation period, cells are lysed in phosphate-buffered saline containing 1% Triton X-100, 0.5% sodium deoxycholate, and 0.1% SDS (sodium dodecyl sulfate), pH 7.4 in the presence of several protease inhibitors (PMSF (phenylmethylsulfonylfluoride), antipain, leupeptin, pepstatin A, and aprotinin all at 1 μg/mL). Ras protein is immunoprecipitated from the supernatants by the addition of 3 μg v-H-ras Ab-2 (Y13-259 antibody from Oncogene Science). After overnight immunoprecipitation, 30 μL of a 50% protein G-Sepharose slurry (Pharmacia) is added followed by 45-minute incubation. Pellets are resuspended in 2×tris-glycine loading buffer (Novex) containing 5% β-mercaptoethanol and then denatured by 5 minutes boiling prior to electrophoresis on 14% Tris-glycine SDS gels. Using Western transfer techniques, proteins are transferred to nitrocellulose membranes followed by blocking in blocking buffer. Upon overnight incubation with primary antibody (pan-ras Ab-2 from Oncogene Science), an antimouse HRP (horse radish peroxidase) conjugate secondary antibody (Amersham) is employed for detection of the ras protein. Blots are developed using ECL(enhanced chemiluminescence) techniques (Amersham).

[3] = tested on: H61 cells: N1H transformed 3T3 H-ras cells; assay: Clonogenic assay (soft agar, 6 well plates); format: cell-based; conditions: H-ras transformed NIH 3T3 cells, colonies counted after Day 13, read-out: Soft Agar IC50 (μM), inhibition of colony formation
Protocol: Clonogenic Assay (6 Well Plates)
Sometime previous to setting up an actual test:
1. Make up 1.5% Bacto Agar in Milli-Q water and autoclave.
2. Make up 500 mL 2×DMEM-HG without phenol red by combining the following:
1 bottle DMEM base powder (Sigma D-5030)
Adjust pH to 7.1 with HCl; filter sterilize.
1. Set up makeshift water bath (beaker of water with thermometer, on hot plate) in the hood. Keep water temperature between 37° C. to 43° C.
2. […] 1.5% Bacto Agar for approximately 2 minutes on high, or until completely melted. Then let it cool somewhat before using it. (You can keep it from resolidifying by setting the bottle on the hot plate.)
Depending on the volume of each layer needed, use either 50 mL conical tubes or 200 mL turnip tubes which can be floated in the “water bath”.
4. Add 1 mL of bottom layer agar/medium to each well: deliver 1 mL warm agar/medium to a well; then using the tip of the pipet, spread the agar/medium around to completely cover the bottom. Repeat with next well.
5. Allow the plates to set at room temperature for about 5 minutes until the bottom layer solidifies.
6. Label sterile Falcon 2054 (12×75 mm) tubes and add appropriate volume of drug solutions into them.
7. Aliquot 4 μL of DMSO or drug solution per 1 mL of agar/medium to appropriate tubes; then add the agar/medium/cells to each tube. Always add 1 mL more than will actually be needed. Mix up and down in the pipet (gently); then deliver 1 mL to the center of each well. The upper layer is less viscous, so it will generally spread out over the bottom layer unaided. If necessary, rotate the plane of the plate gently to spread the top layer evenly over the bottom layer.
8. Let plates set for 5 or 10 minutes at room temperature to solidify, then put into 5% CO2, 37° C. incubator.
9. On Day 13, add 0.5 mL of INT (tetrazolium 1 mg/mL in Milli-Q H2O, filter sterilized) and return plates to incubator.

[4] = tested on: EJ-1 human bladder carcinoma, HT1080 human fibrosarcoma, and human colon carcinoma xenografts; conditions: 100 mg/kg, nude mice; cited from earlier work
[5] = tested on: human lung carcinoma with K-ras mutation and p53 deletion; conditions: nude mice; cited from earlier work
[6] = tested on: mammary and salivary carcinomas; conditions: daily administration, ras transgenic mice; cited from earlier work
[7] = HEPES buffer pH 7.4, without 5 mM potassium phosphate, read-out: IC50 (μM) Hepes
[8] = HEPES buffer pH 7.4 containing 5 mM potassium phosphate, read-out: IC50 (μM) 5 mM PO4•^2 Hepes
[9] = Example 2 compared with Example 1

Row | IC50 [1, 7] [µM] | IC50 [1, 8] [µM] | Structure (SMILES) | Gel Shift (μM) M.E.D* (minimal effective dose to observe inhibition of ras farnesylation) [2] | other results
1 | 0.31 | 0.007 | CN(C(=O)[C@H](Cc1c[nH]cn1)NC(=O)OCc1ccccc1)[C@@H](Cc1ccc(OCc2ccccc2)cc1)C(=O)NCC(C)(C)c1ccccc1 [Example 3, [S-(R*,R*)]-[1-{[2-(4-Benzyloxy-phenyl)-1-(2-methyl-2-phenyl-propylcarbamoyl)-ethyl]-methyl-carbamoyl}-2-(1H-imidazol-4-yl)-ethyl]-carbamic acid benzyl ester] | 0.05 µM | IC50 ([3]; Mus musculus, NIH3T3, 312 h): 0.1 µM
2 | 0.38 | 0.006 | CN(C(=O)[C@H](Cc1c[nH]cn1)NC(=O)OCc1ccccc1)[C@@H](Cc1ccc(OCc2ccccn2)cc1)C(=O)NCC(C)(C)c1ccccc1 [Example 4, [S-(R*,R*)]-[2-(1H-Imidazol-4-yl)-1-(methyl-{1-(2-methyl-2-phenyl-propylcarbamoyl)-2-[4-(pyridin-2-ylmethoxy)-phenyl]-ethyl}-carbamoyl)-ethyl]-carbamic acid benzyl ester] | ≦0.05 μM | –
3 | 0.012 | 0.008 | CN(Cc1ccccc1)C(=O)N[C@@H](Cc1c[nH]cn1)C(=O)N(C)[C@@H](Cc1ccc(OCc2ccccc2)cc1)C(=O)NCC(C)(C)c1ccccc1 [Example 5, [S-(R*,R*)]-2(3-Benzyl-3-methyl-ureido)-N-[2-(4-benzyloxy-phenyl)-1-(2-methyl-2-phenyl-propyl-carbamoyl)-ethyl]-3-(1H-imidazol-4-yl)-N-methyl-propionamide] | ≦0.05 μM | –
4 | 0.26 | 0.005 | CN(C(=O)[C@H](Cc1cnc[nH]1)NC(=O)OCc1ccccc1)[C@@H](Cc1ccccc1)C(=O)NCC(C)(C)c1ccccc1 [Example 7, [S-(R*,R*)]-(2-(3H-Imidazol-4-yl)-1-{methyl-[1-(2-methyl-2-phenyl-propyl-carbamoyl)-2-phenyl-ethyl]-carbamoyl}-ethyl)-carbamic acid benzyl ester] | ≦0.05 μM | –
5 | 1.76 | 0.01 | CC(C)C[C@@H](C(=O)NCC(C)(C)c1ccccc1)N(C)C(=O)[C@H](Cc1cnc[nH]1)NC(=O)OCc1ccccc1 [Example 8, [S-(R*,R*)]-(2-(3H-Imidazol-4-yl)-1-{methyl-[3-methyl-1-(2-methyl-2-phenyl-propylcarbamoyl)-butyl]-carbamoyl}-ethyl)-carbamic acid benzyl ester] | ≦0.05 μM | –
6 | – | – | COC(=O)[C@H](CCSC)NC(=O)[C@H](/C=C\[C@@H](/C=C/[C@@H](N)CS)C(C)C)Cc1ccccc1 [Example B1086] | – | tumor growth by xenografts [4]: inhibit tumor growth
7 | – | – | CSCC[C@H](NC(=O)c1ccc(NC[C@@H](N)CS)cc1-c1ccccc1)C(=O)O [FT1276] | – | tumor growth of human lung carcinoma [5]: selectively block tumor growth
8 | – | – | CC[C@H](C)[C@@H](CO[C@@H](Cc1ccccc1)C(=O)N[C@@H](CCS(C)(=O)=O)C(=O)OC(C)C)NC[C@@H](N)CS [L744,832] | – | effect on mammary and salivary carcinomas [6]: tumor regression

Row | Structure (SMILES) | IC50 [1, 7] [µM] | IC50 [1, 8] [µM] | Gel Shift (μM) M.E.D* (minimal effective dose to observe inhibition of ras farnesylation) [2] | other results
9 | CN(C(=O)[C@@H](Cc1c[nH]cn1)NC(=O)OCc1ccccc1)[C@@H](Cc1ccc(OCc2ccccc2)cc1)C(=O)NCCOCc1ccccc1 (relative stereo) [Example 1, [R-(R*,S*)]-[1-{[1-(2-Benzyloxy-ethylcarbamoyl)-2-(4-benzyloxy-phenyl)-ethyl]-methyl-carbamoyl}-2-(1H-imidazol-4-yl)-ethyl]-carbamic acid benzyl ester] | 7 | 0.4 | 1 µM | activity as a ras farnesyl transferase inhibitor ([1]; stated in words): submicromolar; IC50 [3]: 15.1 µM
10 | CN(C(=O)[C@H](Cc1c[nH]cn1)NC(=O)OCc1ccccc1)[C@@H](Cc1ccc(OCc2ccccc2)cc1)C(=O)NCCc1ccccc1 (relative stereo) [Example 2, [S-(R*,R*)]-[1-{[2-(4-Benzyloxy-phenyl)-1-phenethylcarbamoyl-ethyl]-methyl-carbamoyl}-2-(1H-imidazol-4-yl)-ethyl]-carbamic acid benzyl ester] | 1.4 | 0.032 | 0.2 µM | increase in activity against the enzyme [1, 9]: 10 fold; increase in cellular activity [2, 9]: 5 fold; IC50 [3]: 0.58 µM
11 | CN(C(=O)[C@H](Cc1cnc[nH]1)NC(=O)OCc1ccccc1)[C@@H](Cc1ccc(OCc2ccccc2)cc1)C(=O)NCC1(c2ccccc2)CCC1 (relative stereo) [Example 6, [S-(R*,R*)]-[1-{[2-4-Benzyloxy-phenyl)-1-[(1-phenyl-cyclobutylmethyl)-carbamoyl]-ethyl}-methyl-carbamoyl)-2-(3H-imidazol-4-yl)-ethyl]-carbamic acid benzyl ester] | 1.01 | 0.013 | ≦0.05 μM | –
